Assay results taken from patent EP0023335A1, “N-Hydroxyalkylimidazoline derivatives, a method for their preparation and their application” (Henkel Kommanditgesellschaft auf Aktien, priority 1979, dated 1981).
≈ marks a conversion by molar mass, not a printed value.

Tests used:
Format in all cases: cell-based
[1] = test system: Candida albicans ATCC 10 231; assay: Inhibition series in liquid nutrient medium, tube test CII1 (DGHM guidelines); conditions: ATCC10, read-out: antimikrobielle Wirkung (Hemmreihen)
Description: (§1) Die antimikrobielle Wirkung der vorstehenden Imidazolin-Acetate geht aus folgender Tabelle hervor:
(§2) Die Prüfung erfolgte in Hemmreihen in flüssigem Nährsubstrat gegenüber den genannten Keimen im Röhrchentest CII1 gemäß Richtlinien der DGHM für chemische Desinfektionsmittel.

[2] = test system: Staphylococcus aureus SG 511; assay: as above; conditions: SG511, read-out: antimikrobielle Wirkung (Hemmreihen)
Description: as §1, §2

[3] = test system: Staphylococcus aureus; assay: Microbicidal action in suspension test; conditions: inoculum 3,0 x 10^8 /ml diluted 1:100, room temperature, in H2O
Procedure: (§3) 55,0 g (0,26 Mol) des Imidazolins Nr. 6 der Tabelle 1 wurden in 30 ml Isopropanol gelöst und mit 32,6 g (0,26 Mol) Benzylchlorid in 3 Stunden bei 80'- 85 °C quaterniert. Danach wurde das Isopropanol abdestilliert und das Produkt mit Wasser auf 30 % Aktivsubstanz eingestellt. Die Ergebnisse der Prüfung der mikrobiziden Wirkung einiger Imidazoliniumsalze der Tabelle 2 finden sich in der nachfolgenden Tabelle 3: […]

[4] = test system: Pseudomonas aeruginosa; assay: Microbicidal action in suspension test; conditions: inoculum 1,6 x 10^8 /ml diluted 1:100, room temperature, in H2O
Procedure: as §3

[5] = test system: Candida albicans; assay: Microbicidal action in suspension test; conditions: inoculum 1,9 x 10^8 /ml diluted 1:100, room temperature, in H2O
Procedure: as §3

[6] = test system: Escherichia coli; assay: Microbicidal action in suspension test; conditions: inoculum 3,7 x 10^8 /ml diluted 1:100, room temperature, in H2O
Procedure: as §3

MIC [1] [µg/mL]	MIC [2] [µg/mL]	Compound	Abtötungszeit in Minuten ([3]; 10 ppm active)	Abtötungszeit in Minuten ([3]; 50 ppm active)	Abtötungszeit in Minuten ([3]; 100 ppm active)	Abtötungszeit in Minuten ([4]; 50 ppm active) [Minuten]	Abtötungszeit in Minuten ([4]; 100 ppm active) [Minuten]	Abtötungszeit in Minuten ([5]; 50 ppm active) [Minuten]	Abtötungszeit in Minuten ([5]; 100 ppm active) [Minuten]	Abtötungszeit in Minuten ([6]; 10 ppm active)	Abtötungszeit in Minuten ([6]; 50 ppm active)	Abtötungszeit in Minuten ([6]; 100 ppm active)	Abtötungszeit in Minuten ([4]; 10 ppm active) [Minuten]	Abtötungszeit in Minuten ([5]; 10 ppm active) [Minuten]
50 (≈ 131 µM)	< 10	CCCCCCCCCCC(O)CN1CCN=C1CCCCCCCCC (stereo not shown) [Imidazolin-Nr.4-acetat]												
		CCCCCCCCCC1=[N+](C)CCN1CC(O)CCCCCCCC (stereo not shown) [Imidazoliniumsalz 1]	60 Minuten	≤ 2,5 Minuten	≤ 2,5 Minuten	20	10	40	10	x (x = > 120 Minuten)	20 Minuten	≤ 2,5 Minuten		
		CCCCCCCCCCC(O)CN1CC[N+](C)=C1CCCCCCC (stereo not shown) [Imidazoliniumsalz 3]	≤ 2,5 Minuten	≤ 2,5 Minuten		10		5		5 Minuten	≤ 2,5 Minuten		60	20
		CCCCCCCCCCC(O)CN1CC[N+](C)=C1CCCCCCCCC (stereo not shown) [Imidazoliniumsalz 4]	5 Minuten	5 Minuten		10		20		60 Minuten	10 Minuten		10	20
